Values joined by “and” are separate entries in the source; they are usually repeats but may differ in a detail not shown here. Identical values can stand only once.
Key:
[1] = test system: LS174T cells; experiment: Dye transfer: co-culture of dye labeled and unlabeled LS174T cells, flow cytometry; assay type: cell-based, human
Experimental: (§1) The human colon cancer cell line LS174T was used here as a model to identify the optimal dyes marker with minimal transfer to neighbor cells for cell tracking. A family of DiD dyes (Ex: 648 nm, Em: 667 nm) with variable lipophilic aliphatic tails (Cm/Cn here refer to lengths lipophilic aliphatic tails in the number of C atoms) were investigated: MT279 (C22/C3), MT280 (C22/C12), MT284 (C14/C3), MT285 (C14/C14), CN1012 (C20/C20), MTTI-157 without the DOTA (C22/C22). LS174T cells were cultured in minimal essential medium (MEM) with nonessential amino acids, 10% fetal bovine serum (FBS) and 1% penicillin/streptomycin at 37° C. in a humidified atmosphere with 5% CO2 and were passaged weekly.
LS174T cells were trypsinized, collected, and washed twice with MEM without serum and labeled with the six dyes according to the method described above. […] Study sets are described below. One (1) ml of the cell suspension was added rapidly to 1 ml of 2× working dye solution and immediately mixed by pipetting. […] Subsequently, the cells suspension was spun at 400 g for 10 min. […] The cell viability was determined by trypan blue staining. The dye labeled cells were co-cultured with an equal number of unlabeled cells under normal culture conditions. Samples were removed at 0 h, 24 h and 48 h after initiation of co-culture and fixed in 2% paraformaldehyde for flow cytometry analysis.

[2] = test system: TC1 wild type mES cells; experiment: Culture and fluorescence microscopy of MTTI-157 labeled TC1 mES cells; assay type: cell-based, mouse; conditions: through Day 4, 2 μM and 10 μM dye
Experimental: The MTTI-157 labeled mES cells were seeded into 12-well plates with about 0.5×10^6 cells per well to grow under normal culture conditions to evaluate cell viability, differentiation, fluorescence dye stability, and dye partitioning to daughter cells over time. Unlabeled normal TC1 wild type mES cells were used as control. The cell associated fluorescence was detected from the plates on an Olympus IX 70 Inverted Light Microscope (Olympus America, Inc., NY) using a Cy5 filter on Days 0, 1 and 4 after seeding.
After dye labeling, the trypan blue staining was performed to detect cell viability. […] The fluorescence is shown in red and paired with the phase-contrast image on its right. […] It is obvious from Rows 2 and 3 that the MTTI-157 incorporated into the mES cells. […] By the next day (Day 1), the cells begin to merge forming clones, as expected, and the fluorescence is seen distributed within the clones with passage to other members of the cell cluster, i.e., the daughter cells. On Day 4, the cell clusters are now larger and more cells within the cluster appear to carry the fluorescence signal.

[3] = test system: LS174T cells; experiment: Optimization of dye concentrations: flow cytometry of LS174T cells labeled with six DiD dyes; assay type: cell-based, human
Experimental: as §1
Four working dye stock solutions were investigated. LS174T cells were trypsinized, collected, and washed twice with MEM without serum when the flask was 90% confluent. […] Immediately, prior to staining, 2× working dye stock solutions (1 μM, 4 μM, 10 μM or 20 μM) in Diluent C were prepared. Then 500 μl of cell suspension was added rapidly into 500 μl of 2× working dye and immediately mixed by pipetting. […] The labeled cells were fixed in 2% paraformaldehyde and analyzed by flow cytometry.

[4] = test system: LS174T cells; experiment: Flow cytometry of LS174T cells labeled with MTTI-157: labeling efficiency under different conditions; assay type: cell-based, human; conditions: for labeling efficiency: Set 1, dye dissolved in ethanol
Experimental: The method for LS174T cells labeling with MTTI-157 was as described as before. Briefly, LS174T cells were trypsinized, collected, and washed twice with MEM without serum and then resuspended in Diluent C. Immediately, prior to staining; a 2× working dye stock solution in Diluent C was prepared. The cell suspension was added rapidly to an equal volume of the 2× working dye solution and immediately mixed by pipetting up. […] Subsequently, the cell suspension was spun at 400 g for 5 min. […] After labeling, the labeled cells were fixed in 2% paraformaldehyde and analyzed by flow cytometry.
MTTI-157 was dissolved in ethanol at the concentration of 2 μg/μL.
MTTI-157 was dissolved in DMSO at the concentration of 2 μg/μL.

[5] = test system: Wild type mES cells BL/6; experiment: Flow cytometry of BL/6 mES cells labeled with MTTI-157 (percent labeled cells); assay type: cell-based, mouse
Excerpt: Unlabeled BL/6 cells were used as a control.

**Q.** How did the “Percent of unlabeled cells incorporating dye from labeled cells compared to the value at 0 h” value (from here on “Percent … to the value at 0 h”) ([1]; Set 1, 2 μM dye, 24 h of co-culture) turn out when `CCCCCCCCCCCCCCCCCCCCCCN1C(=CC=CC=CC2=[N+](CCCCCCCCCCCCCCCCCCCCCC)c3ccc(CNC(=O)CN4CCN(CC(=O)O)CCN(CC(=O)O)CCN(CC(=O)O)CC4)cc3C2(C)C)C(C)(C)c2ccccc21.[I-]` [MTTI-157] was run?
**A.** Its value is 22.39%.

**Q.** And the “Percent … to the value at 0 h” value ([1]; Set 1, 2 μM dye, 48 h of co-culture)?
**A.** Its value is 22.74%.

**Q.** What about the “Percent … to the value at 0 h” value ([1]; Set 2, 10 μM dye, 24 h) of the same compound?
**A.** The value was 22% and 22.17%.

**Q.** What about the “Percent … to the value at 0 h” value ([1]; Set 2, 10 μM dye, 48 h) of the same compound?
**A.** Its value is 28% and 28.45%.

**Q.** And the “Percent … to the value at 0 h” value ([1]; Set 3, 5 μM dye, 24 h)?
**A.** The value was 6.93%.

**Q.** And the “Percent … to the value at 0 h” value ([1]; Set 3, 5 μM dye, 48 h)?
**A.** Its value is 22.16%.

**Q.** And the “dye transfer to unlabeled cells (in words)” value ([1]; Set 4, 0.5 μM dye)?
**A.** The value was “dye transfer took place”.

**Q.** What about the “Percent of unlabeled cells incorporating dye from labeled cells compared to that at 0 h” value (“Percent … to that at 0 h” below) ([1]; Set 4, 0.5 μM dye, 24 h) of the same compound?
**A.** The value was 13.58%.

**Q.** What about the “Percent … to that at 0 h” value ([1]; Set 4, 0.5 μM dye, 48 h) of the same compound?
**A.** Its value is 14.675%.

**Q.** What about the “Percent … to that at 0 h” value ([1]; Set 4, 2 μM dye, 24 h) of the same compound?
**A.** Its value is 23.555%.

**Q.** And the “Percent … to that at 0 h” value ([1]; Set 4, 2 μM dye, 48 h)?
**A.** The value was 25.615%.

**Q.** What about the “effects on cellular differentiation” value [2] of the same compound?
**A.** Its value is “no obvious effects on cellular differentiation”.

**Q.** What about the “percent of cells labeled” value ([3]; dye concentration 0.5 μM) of the same compound?
**A.** The value was 71.5%.

**Q.** And the “percent of cells labeled” value ([3]; dye concentration 2 μM)?
**A.** The value was 92.3%.

**Q.** And the “percent of cells labeled” value ([3]; dye concentration 5 μM)?
**A.** The value was 98.6%.

**Q.** What about the “percent of cells labeled” value ([3]; dye concentration 10 μM) of the same compound?
**A.** The value was 99.4%.

**Q.** What about the labeling efficiency ([4]; final dye concentration 10 μM) of the same compound?
**A.** The labeling efficiency was “about 60%”.

**Q.** What about the labeling efficiency ([4]; highest final dye concentration of 20 μM) of the same compound?
**A.** The labeling efficiency was “about 70%”.

**Q.** And the “% labeled cells in total cells by FACS” value ([4]; dye dissolved in DMSO, final dye 10 μM, final cells 10 ×10^7/ml, DMSO in 2x working dye stock 2%)?
**A.** Its value is 97.3%.

**Q.** What about the “% labeled cells in total cells by FACS” value ([4]; dye dissolved in DMSO, final dye 20 μM, final cells 10 ×10^7/ml, DMSO in 2x working dye stock 4%) of the same compound?
**A.** Its value is 97.9%.

**Q.** What about the “% labeled cells in total cells by FACS” value ([4]; dye dissolved in DMSO, final dye 20 μM, final cells 20 ×10^7/ml, DMSO in 2x working dye stock 4%) of the same compound?
**A.** The value was 98.6%.

**Q.** And the “% labeled cells in total cells by FACS” value ([4]; dye dissolved in DMSO, final dye 40 μM, final cells 10 ×10^7/ml, DMSO in 2x working dye stock 8%)?
**A.** Its value is 99.2%.

**Q.** And the “% labeled cells in total cells by FACS” value ([4]; dye dissolved in DMSO, final dye 40 μM, final cells 20 ×10^7/ml, DMSO in 2x working dye stock 8%)?
**A.** Its value is 98.5%.

**Q.** What about the “% labeled cells in total cells by FACS” value ([4]; dye dissolved in DMSO, final dye 80 μM, final cells 10 ×10^7/ml, DMSO in 2x working dye stock 16%) of the same compound?
**A.** Its value is 99.5%.

**Q.** And the “% labeled cells in total cells by FACS” value ([4]; dye dissolved in ethanol, final dye 2 μM, final cells 1 ×10^7/ml, DMSO in 2x working dye stock 0%)?
**A.** The value was 12.6%.

**Q.** And the “% labeled cells in total cells by FACS” value ([4]; dye dissolved in ethanol, final dye 2 μM, final cells 1 ×10^7/ml, DMSO in 2x working dye stock 2%)?
**A.** The value was 23.7%.

**Q.** And the “% labeled cells in total cells by FACS” value ([4]; dye dissolved in ethanol, final dye 2 μM, final cells 10 ×10^7/ml, DMSO in 2x working dye stock 0%)?
**A.** Its value is 29.5%.

**Q.** And the “% labeled cells in total cells by FACS” value ([4]; dye dissolved in ethanol, final dye 10 μM, final cells 1 ×10^7/ml, DMSO in 2x working dye stock 0%)?
**A.** The value was 62.7%.

**Q.** And the “% labeled cells in total cells by FACS” value ([4]; dye dissolved in ethanol, final dye 10 μM, final cells 1 ×10^7/ml, DMSO in 2x working dye stock 2%)?
**A.** The value was 55.9%.

**Q.** What about the “% labeled cells in total cells by FACS” value ([4]; dye dissolved in ethanol, final dye 10 μM, final cells 10 ×10^7/ml, DMSO in 2x working dye stock 0%) of the same compound?
**A.** The value was 57.9%.

**Q.** What about the “% labeled cells in total cells by FACS” value ([4]; dye dissolved in ethanol, final dye 20 μM, final cells 1 ×10^7/ml, DMSO in 2x working dye stock 0%) of the same compound?
**A.** Its value is 74.3%.

**Q.** What about the “% labeled cells in total cells by FACS” value ([4]; dye dissolved in ethanol, final dye 20 μM, final cells 1 ×10^7/ml, DMSO in 2x working dye stock 2%) of the same compound?
**A.** The value was 71.1%.

**Q.** And the “% labeled cells in total cells by FACS” value ([4]; dye dissolved in ethanol, final dye 20 μM, final cells 10 ×10^7/ml, DMSO in 2x working dye stock 0%)?
**A.** The value was 75.0%.

**Q.** And the “percent of labeled cells in total cells” value ([5]; 2 μM dye)?
**A.** The value was 9.8%.

**Q.** What about the “percent of labeled cells in total cells” value ([5]; 10 μM dye) of the same compound?
**A.** Its value is 28.7%.

**Q.** What about the “percent of labeled cells in total cells” value ([5]; 20 μM dye) of the same compound?
**A.** The value was 34%.

Reference: patent publication US10537650B2, “Molecular probes for multimodality imaging and tracking of stem cells” (University of Massachusetts, priority 2012, dated 2020)
